Reference: ChEMBL document CHEMBL1201862, “PubChem BioAssay data set” (2004)
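Five concentrations, 48 hours, 96-well plates. GI50 marks 50% less growth.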 Active and inactive are the calls of the source. No stated cut-off is given here; in the data, active = GI50 up to about 1.1 µM and inactive = higher.

What was measured:
Assay in all cases: inhibition of tumour cell growth, NCI panel, 48 h
MCF7 = tested on: MCF7
OVCAR-3 = tested on: OVCAR-3
SW-620 = tested on: SW-620
IGROV-1 = tested on: IGROV-1
OVCAR-4 = tested on: OVCAR-4
RXF 393 = tested on: RXF 393
NCI-H23 = tested on: NCI-H23
DU-145 = tested on: DU-145
HOP-62 = tested on: HOP-62
SNB-19 = tested on: SNB-19
LOX IMVI = tested on: LOX IMVI
HCC 2998 = tested on: HCC 2998
NCI/ADR-RES = tested on: NCI/ADR-RES
SF-295 = tested on: SF-295
M14 = tested on: M14
NCI-H522 = tested on: NCI-H522
SK-MEL-5 = tested on: SK-MEL-5
OVCAR-5 = tested on: OVCAR-5
ACHN = tested on: ACHN
HOP-92 = tested on: HOP-92

Measured: GI50

COc1ccc(/C=C2\N=C(SC)NC2=O)cc1
inactive: MCF7 70.8 µM | OVCAR-3 > 100 µM | SW-620 > 100 µM | IGROV-1 56.5 µM | OVCAR-4 71.1 µM | RXF 393 67.3 µM | NCI-H23 67 µM | DU-145 53.8 µM | HOP-62 > 100 µM | SNB-19 38.5 µM | LOX IMVI > 100 µM | HCC 2998 > 100 µM | NCI/ADR-RES > 100 µM | SF-295 > 100 µM | M14 > 100 µM | NCI-H522 69 µM | SK-MEL-5 53.6 µM | OVCAR-5 > 100 µM

COc1cc(C2SCC(=O)N2c2ccc(Oc3ccc(Cl)cc3)c(Cl)c2)cc(OC)c1OC (centres undefined)
inactive: MCF7 36.3 µM | OVCAR-3 17.1 µM | SW-620 21 µM | IGROV-1 15.6 µM | OVCAR-4 42.7 µM | NCI-H23 32.8 µM | DU-145 13.3 µM | HOP-62 20.4 µM | SNB-19 34.2 µM | LOX IMVI 17.9 µM | HCC 2998 40 µM | NCI/ADR-RES 16.6 µM | SF-295 16.4 µM | M14 29.9 µM | ACHN 30.9 µM | NCI-H522 12 µM | SK-MEL-5 17.9 µM | OVCAR-5 23.2 µM

O=C(Cn1c2c(c3ccccc31)CCCC2)N1CCOCC1
inactive: MCF7 > 100 µM | OVCAR-3 > 100 µM | SW-620 > 100 µM | IGROV-1 > 100 µM | OVCAR-4 44.4 µM | NCI-H23 > 100 µM | HOP-62 > 100 µM | SNB-19 > 100 µM | LOX IMVI > 100 µM | HCC 2998 > 100 µM | HOP-92 > 100 µM | NCI/ADR-RES > 100 µM | SF-295 > 100 µM | M14 > 100 µM | ACHN > 100 µM | SK-MEL-5 > 100 µM | OVCAR-5 87.3 µM

COc1ccccc1/C=C\C(=O)C1COCN1 (centres undefined)
inactive: MCF7 5.53 µM | OVCAR-3 8.24 µM | SW-620 4.36 µM | IGROV-1 16.1 µM | OVCAR-4 16.3 µM | RXF 393 21 µM | NCI-H23 > 100 µM | DU-145 17.3 µM | HOP-62 21.4 µM | SNB-19 13.1 µM | LOX IMVI 4.83 µM | NCI/ADR-RES 15.2 µM | SF-295 26.1 µM | M14 50.8 µM | ACHN 10.7 µM | NCI-H522 16 µM | SK-MEL-5 10.6 µM | OVCAR-5 24.7 µM

O=C(O)CC(NC(=O)/C(=C/c1ccccc1O)NC(=O)c1ccccc1)C(=O)O (centres undefined)
inactive: MCF7 34 µM | OVCAR-3 > 100 µM | SW-620 > 100 µM | IGROV-1 58.9 µM | OVCAR-4 > 100 µM | NCI-H23 > 100 µM | HOP-62 > 100 µM | LOX IMVI > 100 µM | HCC 2998 > 100 µM | NCI/ADR-RES > 100 µM | SF-295 > 100 µM | M14 > 100 µM | ACHN 40.8 µM | NCI-H522 65.5 µM | SK-MEL-5 > 100 µM | OVCAR-5 > 100 µM

NS(=O)(=O)c1ccccc1C(=O)N/N=C(\c1nc2ccc([N+](=O)[O-])cc2[nH]c1=O)C(O)c1ccc([N+](=O)[O-])cc1 (centres undefined)
inactive: OVCAR-3 > 100 µM | SW-620 > 100 µM | IGROV-1 > 100 µM | OVCAR-4 > 100 µM | RXF 393 > 100 µM | NCI-H23 > 100 µM | DU-145 > 100 µM | SNB-19 > 100 µM | LOX IMVI 84.1 µM | HCC 2998 > 100 µM | HOP-92 > 100 µM | SF-295 > 100 µM | M14 > 100 µM | ACHN 41.6 µM | NCI-H522 10.6 µM | SK-MEL-5 44.4 µM | OVCAR-5 > 100 µM

CCOC(=O)CC(=O)Sc1ccccc1
inactive: OVCAR-3 17.3 µM | SW-620 19.1 µM | IGROV-1 12.5 µM | OVCAR-4 37.7 µM | RXF 393 10.3 µM | NCI-H23 24.5 µM | HOP-62 27.1 µM | SNB-19 28.2 µM | LOX IMVI 12.8 µM | HCC 2998 23.9 µM | HOP-92 27.5 µM | SF-295 29.6 µM | M14 14.2 µM | ACHN 23.1 µM | NCI-H522 11.8 µM | SK-MEL-5 17.3 µM | OVCAR-5 36.4 µM

CCOC(=O)Nn1cnnc1Cc1ccccc1
inactive: MCF7 > 100 µM | OVCAR-3 > 100 µM | SW-620 > 100 µM | IGROV-1 > 100 µM | OVCAR-4 > 100 µM | NCI-H23 > 100 µM | HOP-62 > 100 µM | SNB-19 > 100 µM | LOX IMVI > 100 µM | HCC 2998 > 100 µM | HOP-92 > 100 µM | NCI/ADR-RES > 100 µM | SF-295 > 100 µM | M14 > 100 µM | ACHN > 100 µM | NCI-H522 > 100 µM | SK-MEL-5 > 100 µM | OVCAR-5 > 100 µM

CCC(C)(C)C1CCC2c3c([nH]c4ccccc34)C3C(=O)N(c4ccc(OC)cc4)C(=O)C3C2C1 (centres undefined)
inactive: MCF7 3.94 µM | OVCAR-3 2.19 µM | SW-620 17.4 µM | IGROV-1 15.7 µM | OVCAR-4 16.7 µM | RXF 393 20.4 µM | NCI-H23 10.5 µM | DU-145 5.4 µM | HOP-62 10.2 µM | SNB-19 25.6 µM | LOX IMVI 6.81 µM | HCC 2998 5.77 µM | NCI/ADR-RES 15.6 µM | SF-295 20.8 µM | M14 18.8 µM | ACHN 11.2 µM | NCI-H522 7.16 µM | OVCAR-5 15.3 µM

C=C(CN(C)C)C(=O)c1ccccc1Cl
inactive: OVCAR-3 19.7 µM | SW-620 13.3 µM | IGROV-1 > 47 µM | OVCAR-4 20.4 µM | RXF 393 15.4 µM | NCI-H23 22.9 µM | DU-145 36.4 µM | HOP-62 > 100 µM | SNB-19 63.1 µM | LOX IMVI 17.8 µM | HCC 2998 26.5 µM | HOP-92 17.1 µM | SF-295 > 65.3 µM | M14 19 µM | ACHN 17.6 µM | NCI-H522 6.53 µM | SK-MEL-5 24.2 µM | OVCAR-5 > 43 µM

C[n+]1c(-c2ccc(/C=N/N=C/c3ccc(-c4cn5ccccc5[n+]4C)cc3)cc2)cn2ccccc21
inactive: MCF7 > 100 µM | SW-620 > 100 µM | IGROV-1 > 100 µM | OVCAR-4 > 100 µM | HOP-62 > 100 µM | SNB-19 > 100 µM | HCC 2998 > 100 µM | NCI/ADR-RES > 100 µM | SF-295 > 100 µM | M14 > 100 µM | ACHN > 100 µM | NCI-H522 > 100 µM | SK-MEL-5 > 100 µM | OVCAR-5 > 100 µM
